≈ marks a conversion by molar mass, not a printed value. Read-outs that look alike come from different tables or passages of the source. One block for each compound: values may come before it.
How the values were obtained:
[1] = tested on: HepG2 human hepatocellular carcinoma cells; experiment: Cell viability (cytotoxicity, MTT) using HepG2; assay type: cell-based; details: 72h, 3 replicas, NR = No response (Summary sheet)
Description: (§1) HepG2 human hepatocellular carcinoma cells were plated on 96-well tissue culture polystyrene plates for 24 h prior to dosing of the cells. The shortlisted hits were diluted in DMSO and serial dilutions are made 1% DMSO in growth media. Compounds at 8 concentrations in triplicate was then incubated for 72 h. Appropriate blanks and controls were run alongside the assay. One h prior to the end of the incubation period, the cells were loaded with MTT [yellow; 3-(4,5-dimethyl-2-thiazolyl)-2,5-diphenyl-2H-tetrazolium bromide], the plates were dried and re-solubilized using DMSO. The plates were then scanned at 570 nm using a plate reader.
(§2) The minimum effective concentration was determined from the lowest concentration whose mean value exceeds the significance level, provided either a clear dose–response relationship was observed, or at least two consecutive concentration points were above the significance level.

[2] = Cell viability (cytotoxicity, MTT) using HepG2; assay type: cell-based, human; details: human, HepG2 cells, 72h, 3 replicas, NR = No response (Summary sheet), read-out: AC50
Description: as §1, §2

[3] = Semi-thermodynamic solubility; assay type: physicochemical; details: Room Temp, Overnight, LC-MSMS
Description: In vitro ADME-T assays were performed by Cyprotex (Cyprotex Discovery, Cheshire, UK). […] The solution was agitated at ambient temperature overnight. The solutions were then centrifuged for 30 min at 3000 rpm at RT. The supernatant was removed and centrifuged for a further 30 min under the same conditions. An aliquot of the resulting supernatant was diluted in 50% methanol in water (containing an internal standard for MS analysis) prior to analysis by LC–MS/MS. […] These stocks were diluted in 50% methanol in water (containing an internal standard for MS analysis) prior to analysis by LC–MS/MS. The solubility of the shortlisted hits was calculated from a linear or quadratic fit of the standard curve.

[4] = PBS, aqueous buffer, thermodynamic from solid, read-out: Solubility Replicate 1

SMILES: CN(C)CCCN1c2ccccc2Sc2ccc(Cl)cc21 [Chlorpromazine, reference compound]
- MEC [1]: 10.7 µM
- AC50 at 72 h [2]: 12.9 µM

SMILES: N#CC(C#N)=NNc1cccc(Cl)c1 [carbonyl cyanide 3-chlorophenylhydrazone, reference compound]
- MEC [1]: 4.22 µM
- AC50 at 72 h [2]: 6.66 µM

- solubility ([3]; PBS, aqueous buffer, thermodynamic from solid, read-out: Mean Solubility): 29.8 µM (≈ 14.3 µg/mL)
- solubility [3, 4]: 34.3 µM (≈ 16.4 µg/mL)
- solubility ([3]; PBS, aqueous buffer, thermodynamic from solid, read-out: Solubility Replicate 2): 24.2 µM (≈ 11.6 µg/mL)
- solubility ([3]; PBS, aqueous buffer, thermodynamic from solid, read-out: Solubility Replicate 3): 29.6 µM (≈ 14.2 µg/mL)
- solubility ([3]; PBS, aqueous buffer, thermodynamic from solid, read-out: Solubility Replicate 4): 31.2 µM (≈ 15 µg/mL)
SMILES: COC(=O)C1=C(C)NC(C)=C(C(=O)OCCN(C)Cc2ccccc2)C1c1cccc([N+](=O)[O-])c1 (centres unmarked) [nicardipine, reference compound]

- solubility [3, 4]: > 100 µM
- solubility ([3]; read-out: Mean Solubility): >100 µM
- solubility ([3]; read-out: Solubility Replicate 2): >100 µM
- solubility ([3]; read-out: Solubility Replicate 3): >100 µM
- solubility ([3]; read-out: Solubility Replicate 4): >100 µM
SMILES: CC(=O)CC(c1ccccc1)c1c(O)c2ccccc2oc1=O (centres unmarked) [warfarin, reference compound]
